From patent publication US9796704B2, “Substituted quinazolines as receptor-type kinase inhibitors” (Symphony Evolution, Inc., priority 2002, dated 2017)

What was measured:
ErbB2 = ErbB2 (Homo sapiens (Human), UniProt P04626); assay: ErbB2 kinase inhibition, AlphaScreen; format: biochemical
Protocol: Kinase activity and compound inhibition are investigated using one or more of the three assay formats described below. The ATP concentrations are selected near its Michaelis-Menten constant (KM) for each individual kinase. Dose-response experiments are performed at ten different inhibitor concentrations in a 384-well plate format. […] These parameters are obtained by nonlinear regression algorithm built into ActivityBase software (available from ID Business Solutions Ltd., of Guildford, Surrey, UK). ^33P Phosphoryl Transfer Assay (Radiometric)

EphB4 = EphB4 (Homo sapiens (Human), UniProt P54760); assay: EphB4 kinase inhibition, 33P phosphoryl transfer assay (radiometric); format: biochemical
EphB4, sequence (P54760 605-890): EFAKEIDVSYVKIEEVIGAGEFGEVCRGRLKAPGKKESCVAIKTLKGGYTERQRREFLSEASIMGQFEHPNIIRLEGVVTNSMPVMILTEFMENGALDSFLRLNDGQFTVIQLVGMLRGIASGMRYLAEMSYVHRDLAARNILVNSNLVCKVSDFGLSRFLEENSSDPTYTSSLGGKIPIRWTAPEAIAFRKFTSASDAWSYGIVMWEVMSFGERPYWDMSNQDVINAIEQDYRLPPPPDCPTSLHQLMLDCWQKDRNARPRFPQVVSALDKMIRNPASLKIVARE

EGFR = EGFR (Homo sapiens (Human), UniProt P00533); assay: EGFR kinase inhibition, luciferase-coupled chemiluminescent assay (LCCA); conditions: read-out: EGFR IC50
EphA2 = EphA2 (Homo sapiens (Human), UniProt P29317); assay: EphA2 kinase inhibition, luciferase-coupled chemiluminescent assay (LCCA); conditions: read-out: EphA2 IC50
EphA2, sequence (P29317 598-890): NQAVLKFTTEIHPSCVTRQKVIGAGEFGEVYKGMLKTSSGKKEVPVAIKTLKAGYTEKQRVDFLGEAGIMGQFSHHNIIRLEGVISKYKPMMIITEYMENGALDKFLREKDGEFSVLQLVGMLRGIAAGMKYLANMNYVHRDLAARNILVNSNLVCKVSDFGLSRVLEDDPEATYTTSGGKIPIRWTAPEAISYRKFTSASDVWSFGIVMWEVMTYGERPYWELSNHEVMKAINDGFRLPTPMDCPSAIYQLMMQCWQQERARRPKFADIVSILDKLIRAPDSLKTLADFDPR

KDR = KDR (Homo sapiens (Human), UniProt P35968); assay: KDR kinase inhibition, luciferase-coupled chemiluminescent assay (LCCA); conditions: read-out: KDR IC50
KDR, sequence (P35968 807-1356): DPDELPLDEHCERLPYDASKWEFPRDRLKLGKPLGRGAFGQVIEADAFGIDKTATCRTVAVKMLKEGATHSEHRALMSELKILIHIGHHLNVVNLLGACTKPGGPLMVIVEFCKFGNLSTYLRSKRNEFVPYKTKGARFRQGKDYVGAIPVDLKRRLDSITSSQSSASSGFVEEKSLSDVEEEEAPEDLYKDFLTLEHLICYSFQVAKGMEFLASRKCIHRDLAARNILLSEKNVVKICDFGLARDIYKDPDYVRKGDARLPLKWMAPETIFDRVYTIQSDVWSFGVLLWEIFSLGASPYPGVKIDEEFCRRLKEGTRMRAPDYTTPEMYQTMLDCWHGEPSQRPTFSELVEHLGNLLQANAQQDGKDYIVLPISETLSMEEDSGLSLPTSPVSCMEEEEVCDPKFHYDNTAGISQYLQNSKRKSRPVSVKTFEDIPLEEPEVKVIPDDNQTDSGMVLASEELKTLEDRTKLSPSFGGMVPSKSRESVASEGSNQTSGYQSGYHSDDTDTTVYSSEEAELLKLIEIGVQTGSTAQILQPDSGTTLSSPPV
Protocol: Kinase activity and compound inhibition are investigated using one or more of the three assay formats described below. The ATP concentrations are selected near its Michaelis-Menten constant (KM) for each individual kinase. Dose-response experiments are performed at ten different inhibitor concentrations in a 384-well plate format. […] Typically H is close to unity.
In the LCCA assays, kinase activity is measured by the ATP consumption that is accurately measured by luciferase-coupled chemiluminescence. Greiner 384-well white clear bottom medium binding plates are used for LCCA. Briefly the kinase reaction is initiated by mixing compounds, ATP and kinases in a 20 μL volume. At the end of the kinase reaction, a 20 μL luciferase-luciferin mix is added and the chemiluminescent signal is read on a Wallac Victor^2 reader.

Measured: IC50

COc1cc2c(Nc3ccc(Cl)c(Cl)c3)ncnc2cc1OCc1c(-c2ccccc2)nn(C)c1Cl [Example 175, 7-{[(5-chloro-1-methyl-3-phenyl-1H-pyrazol-4-yl)methyl]oxy}-N-(3,4-dichlorophenyl)-6-(methyloxy)quinazolin-4-amine]
< 50 nM: ErbB2 | EphB4 | EGFR

COc1cc2c(Nc3ccc(Cl)c(Cl)c3)ncnc2cc1OCc1nc(CN2CCN(C)CC2)cs1 [Example 207, N-(3,4-dichlorophenyl)-6-(methyloxy)-7-[({4-[(4-methylpiperazin-1-yl)methyl]-1,3-thiazol-2-yl}methyl)oxy]quinazolin-4-amine]
50 to 1000 nM: EphA2
< 50 nM: ErbB2 | EphB4 | EGFR

COc1cc2c(Nc3cc(Cl)c(Cl)cc3F)ncnc2cc1O[C@H]1CO[C@H]2[C@@H]1OC[C@@H]2OC [Example 69, 1,4:3,6-dianhydro-2-O-[4-[(4,5-dichloro-2-fluorophenyl)amino]-6-(methyloxy)quinazolin-7-yl]-5-O-methyl-L-iditol]
< 50 nM: all assays above

COc1cc2c(Nc3ccc(Br)c(Cl)c3)ncnc2cc1O[C@H]1CO[C@@H]2CCO[C@H]12 [Example 77, 1,4:3,6-dianhydro-2-O-[4-[(4-bromo-3-chlorophenyl)amino]-6-(methyloxy)quinazolin-7-yl]-5-deoxy-D-xylo-hexitol]
50 to 1000 nM: EphA2
< 50 nM: ErbB2 | EphB4 | EGFR

COc1cc2c(Nc3ccc(Cl)c(Cl)c3)ncnc2cc1OCCC1CCCN1C (centres unmarked) [Example 237, N-(3,4-dichlorophenyl)-6-(methyloxy)-7-{[2-(1-methylpyrrolidin-2-yl)ethyl]oxy}quinazolin-4-amine]
< 50 nM: all assays above

COc1cc2c(Nc3ccc(Cl)c(Cl)c3)ncnc2cc1OCc1noc(C2CCCCN2C(=O)OC(C)(C)C)n1 (centres unmarked) [Example 196, 1,1-dimethylethyl 2-[3-({[4-[(3,4-dichlorophenyl)amino]-6-(methyloxy)quinazolin-7-yl]oxy}methyl)-1,2,4-oxadiazol-5-yl]piperidine-1-carboxylate]
< 50 nM: all assays above

COc1cc2c(Nc3ccc(Cl)c(Cl)c3)ncnc2cc1OCc1noc(C2CCCCN2C)n1 (centres unmarked) [Example 154, N-(3,4-dichlorophenyl)-6-(methyloxy)-7-({[5-(1-methylpiperidin-2-yl)-1,2,4-oxadiazol-3-yl]methyl}oxy)quinazolin-4-amine]
< 50 nM: ErbB2 | EphB4 | EGFR

COc1cc2c(Nc3ccc(Cl)c(Cl)c3)ncnc2cc1OCc1ccc2nc(C(F)(F)F)cc(Cl)c2c1 [Example 236, 7-({[4-chloro-2-(trifluoromethyl)quinolin-6-yl]methyl}oxy)-N-(3,4-dichlorophenyl)-6-(methyloxy)quinazolin-4-amine]
< 50 nM: all assays above

COc1cc2c(Nc3ccc(Cl)c(Cl)c3)ncnc2cc1OCc1cscn1 [Example 170, N-(3,4-dichlorophenyl)-6-(methyloxy)-7-[(1,3-thiazol-4-ylmethyl)oxy]quinazolin-4-amine]
not listed: KDR
< 50 nM: all other assays above

COc1cc2c(Nc3ccc(Cl)c(Cl)c3)ncnc2cc1O[C@@H]1CO[C@@H]2[C@H]1OC[C@H]2F [Example 119, 1,4:3,6-dianhydro-2-deoxy-5-O-[4-[(3,4-dichlorophenyl)amino]-6-(methyloxy)quinazolin-7-yl]-2-fluoro-D-iditol]
< 50 nM: all assays above

CCN1CCC(c2nc(COc3cc4ncnc(Nc5ccc(Cl)c(Cl)c5)c4cc3OC)no2)CC1 [Example 238, N-(3,4-dichlorophenyl)-7-({[5-(1-ethylpiperidin-4-yl)-1,2,4-oxadiazol-3-yl]methyl}oxy)-6-(methyloxy)quinazolin-4-amine]
< 50 nM: all assays above

COc1cc2c(Nc3ccc(Cl)c(Cl)c3)ncnc2cc1OCc1csc([C@@H]2CCCN2)n1 [Example 244, N-(3,4-dichlorophenyl)-6-(methyloxy)-7-[({2-[(2S)-pyrrolidin-2-yl]-1,3-thiazol-4-yl}methyl)oxy]quinazolin-4-amine]
< 50 nM: all assays above

COc1cc2c(Nc3ccc(Cl)c(Cl)c3)ncnc2cc1OCc1nc(-c2ccc(C(C)(C)C)cc2)no1 [Example 226, N-(3,4-dichlorophenyl)-7-[({3-[4-(1,1-dimethylethyl)phenyl]-1,2,4-oxadiazol-5-yl}methyl)oxy]-6-(methyloxy)quinazolin-4-amine]
50 to 1000 nM: EphA2
< 50 nM: all other assays above

COc1cc2c(Nc3ccc(Cl)c(Cl)c3)ncnc2cc1OCC1CCC1 [Example 187, 7-[(cyclobutylmethyl)oxy]-N-(3,4-dichlorophenyl)-6-(methyloxy)quinazolin-4-amine]
< 50 nM: ErbB2 | EphB4 | EGFR
50 to 1000 nM: EphA2

COc1cc2c(Nc3ccc(Cl)c(Cl)c3)ncnc2cc1OCc1noc(-c2ccc(C(F)(F)F)cc2)n1 [Example 167, N-(3,4-dichlorophenyl)-6-(methyloxy)-7-[({5-[4-(trifluoromethyl)phenyl]-1,2,4-oxadiazol-3-yl}methyl)oxy]quinazolin-4-amine]
not listed: KDR
< 50 nM: all other assays above

N-(3,4-dichlorophenyl)-6-(methyloxy)-7-({[3-(4-methylpiperazin-1-yl)-1,2,4-oxadiazol-5-yl]methyl}oxy)quinazolin-4-amine [Example 33]
50 to 1000 nM: EphA2 | ErbB2
< 50 nM: all other assays above

COc1cc2c(Nc3ccc(Cl)c(Cl)c3)ncnc2cc1OCc1nc(N2CCN(C(=O)OC(C)(C)C)CC2)no1 [Example 215, 1,1-dimethylethyl 4-[5-({[4-[(3,4-dichlorophenyl)amino]-6-(methyloxy)quinazolin-7-yl]oxy}methyl)-1,2,4-oxadiazol-3-yl]piperazine-1-carboxylate]
< 50 nM: ErbB2 | EphB4 | EGFR
50 to 1000 nM: EphA2

COc1cc2c(Nc3ccc(Cl)c(Cl)c3)ncnc2cc1OCc1csc(COC(=O)c2ccccc2)n1 [Example 245, [4-({[4-[(3,4-dichlorophenyl)amino]-6-(methyloxy)quinazolin-7-yl]oxy}methyl)-1,3-thiazol-2-yl]methyl benzoate]
< 50 nM: all assays above

COc1cc2c(Nc3ccc(Cl)c(Cl)c3)ncnc2cc1OCc1cc(C)on1 [Example 160, N-(3,4-dichlorophenyl)-7-{[(5-methylisoxazol-3-yl)methyl]oxy}-6-(methyloxy)quinazolin-4-amine]
< 50 nM: ErbB2 | EphB4 | EGFR

COc1cc2c(Nc3ccc(Cl)c(Cl)c3)ncnc2cc1OCc1nc(-c2ccc(N3CCCC3)cc2)cs1 [Example 198, N-(3,4-dichlorophenyl)-6-(methyloxy)-7-({[4-(4-pyrrolidin-1-ylphenyl)-1,3-thiazol-2-yl]methyl}oxy)quinazolin-4-amine]
< 50 nM: all assays above

COc1cc2c(Nc3ccc(Cl)c(Cl)c3)ncnc2cc1OCc1nc(-c2ccccn2)cs1 [Example 202, N-(3,4-dichlorophenyl)-6-(methyloxy)-7-{[(4-pyridin-2-yl-1,3-thiazol-2-yl)methyl]oxy}quinazolin-4-amine]
50 to 1000 nM: EphA2
< 50 nM: ErbB2 | EphB4 | EGFR

N-(3,4-dichlorophenyl)-7-({[2-(1-ethylpiperidin-4-yl)-1,3-thiazol-4-yl]methyl}oxy)-6-(methyloxy)quinazolin-4-amine hydrochloride [Example 37]
50 to 1000 nM: EphB4
< 50 nM: EphA2 | ErbB2 | EGFR

COc1cc2c(Nc3ccc(Cl)c(Cl)c3)ncnc2cc1OCc1ccc2nonc2c1 [Example 163, 7-[(2,1,3-benzoxadiazol-5-ylmethyl)oxy]-N-(3,4-dichlorophenyl)-6-(methyloxy)quinazolin-4-amine]
< 50 nM: ErbB2 | EphB4 | EGFR

CCN1CCC(c2nc(COc3cc4ncnc(Nc5ccc(Cl)c(Cl)c5)c4cc3OC)cs2)CC1 [Example 242, N-(3,4-dichlorophenyl)-7-({[2-(1-ethylpiperidin-4-yl)-1,3-thiazol-4-yl]methyl}oxy)-6-(methyloxy)quinazolin-4-amine]
not listed: ErbB2
< 50 nM: all other assays above

COc1cc2c(Nc3ccc(Cl)c(Cl)c3)ncnc2cc1OCC1CCCO1 (centres unmarked) [Example 183, N-(3,4-dichlorophenyl)-6-(methyloxy)-7-[(tetrahydrofuran-2-ylmethyl)oxy]quinazolin-4-amine]
50 to 1000 nM: EphA2
< 50 nM: ErbB2 | EphB4 | EGFR
